B1: PgaA: E. coli PgaA residues 32–807, TPR domain plus outer membrane porin (protein)
chain: SAVNNAYDALIIEARKGNTQPALSWFALKSALSNNQIADWLQIALWAGQDKQVITVYNRYRHQQLPARGYAAVAVAYRNLQQWQNSLTLWQKALSLEPQNKDYQRGQILTLADAGHYDTALVKLKQLNSGAPDKANLLAEAYIYKLAGRHQDELRAMTESLPENASTQQYPTEYVQALRNNQLAAAIDDANLTPDIRADIHAELVRLSFMPTRSESERYAIADRALAQYAALEILWHDNPDRTAQYQRIQVDHLGALLTRDRYKDVISHYQRLKKTGQIIPPWGQYWVASAYLKDHQPKKAQSIMTELFYHKETIAPDLSDEELADLFYSHLESENYPGALTVTQHTINTSPPFLRLMGTPTSIPNDTWLQGHSFLSTVAKYSNDLPQAEMTARELAYNAPGNQGLRIDYASVLQARGWPRAAENELKKAEVIEPRNINLEVEQAWTALTLQEWQQAAVLTHDVVEREPQDPGVVRLKRAVDVHNLAELRIAGSTGIDAEGPDSGKHDVDLTTIVYSPPLKDNWRGFAGFGYADGQFSEGKGIVRDWLAGVEWRSRNIWLEAEYAERVFNHEHKPGARLSGWYDFNDNWRIGSQLERLSHRVPLRAMKNGVTGNSAQAYVRWYQNERRKYGVSWAFTDFSDSNQRHEVSLEGQERIWSSPYLIVDFLPSLYYEQNTEHDTPYYNPIKTFDIVPAFEASHLLWRSYENSWEQIFSAGVGASWQKHYGTDVVTQLGYGQRISWNDVIDAGATLRWEKRPYDGDREHNLYVEFDMTFRF
modifications: left off: His6, N-terminal, kept
notes: E. coli PgaA residues 32–807, TPR domain plus outer membrane porin

Legend:
[1] = molecular target: T1, PgaA-32-367 (Escherichia coli, UniProt P69434); assay: Direct ESI-MS binding assay, PgaA-32-367; set-up: species or system E. coli; conditions: 25°C and pH 7, direct ESI-MS assay; for Kd: read-out: Kd, TPR region 32–367
T1 construct: His6 (thrombin cleavable, pET28) (N); made in house; host or cells: E. coli BL21 CodonPlus
T1 sequence (P69434 32-367): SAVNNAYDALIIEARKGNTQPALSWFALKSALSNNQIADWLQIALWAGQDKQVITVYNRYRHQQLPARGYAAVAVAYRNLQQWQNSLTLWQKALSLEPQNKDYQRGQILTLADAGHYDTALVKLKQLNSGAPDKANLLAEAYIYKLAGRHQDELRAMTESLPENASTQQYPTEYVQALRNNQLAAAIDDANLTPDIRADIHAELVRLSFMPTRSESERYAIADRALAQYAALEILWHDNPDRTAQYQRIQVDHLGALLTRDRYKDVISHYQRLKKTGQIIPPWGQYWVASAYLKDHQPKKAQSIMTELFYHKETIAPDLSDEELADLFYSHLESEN
Protocol: (§1) Solutions of PgaA220-367 (5.7 μM) and PgaA32-367 (11.6 μM) were used for binding assay. […] Binding measurements were carried out in positive ion mode using a Synapt G2S ESI-Q-IMS-TOF mass spectrometer (Waters, Manchester, UK) equipped with nanoflow ESI (nanoESI) source. NanoESI was performed by applying a voltage of ~1 kV to a platinum wire inserted into the nanoESI tip, which was produced from a borosilicate glass capillary (1.0 mm o.d., 0.68 mm i.d.) pulled to ~5 μm o.d. using a P−1000 micropipette puller (Sutter Instruments, Novato, CA). The source temperature and gas flow rate was 60°C and 2 mL/min, respectively. The Cone, Trap and Transfer voltages were 20 V, 3 V and 1 V, respectively. MassLynx software (version 4.1) was used for data acquisition and processing.
(§2) The Kd for protein (P)—ligand (L) binding was calculated from the abundance ratio of L-bound to free P ions (i.e., R), measured by ESI-MS: R = Ab(PL)/Ab(P) = [PL]/[P], Kd = [P][L]/[PL] = [L]0/R—[P]0/(R+1), where [P]0 and [L]0 are initial concentrations of protein and ligand, correspondingly. Non-specific protein-ligand binding was corrected as published.

[2] = molecular target: PgaA-32-220; assay: ESI-MS binding test, PgaA-32-220; set-up: species or system E. coli; conditions: sample partially degraded
Protocol: PgaA32-220 was analyzed using the SolariX 15 T FT-ICR mass spectrometer (Bruker-Daltonics, Billerica, MA), equipped with a dynamically harmonized ParaCell and nanoESI source. […] The instrumental parameters for these measurements were: glass capillary exit voltage (200 V); source drying gas (N2, 4 L/min and 120°C); deflector plate (220 V). The RF amplitude of the ion-funnels was 300 V peak-to-peak, and the applied voltages were 150 V and 6 V for funnels 1 and 2, respectively. The voltage of skimmer 1 was 30 V and the skimmer 2 voltage was 5 V. Accumulation time in the hexapole collision cell was 0.7 s; the time-of-flight was 2 ms. The operating pressure in UHV region was ~5×10^−10 mbar. Data acquisition was performed using the FtmsControl software (version 2.2). The time-domain signal, consisting of the sum of 25 transients, containing 2M data points per transient, was subjected to one zero-fill prior to Fourier-transform.

[3] = molecular target: T2, PgaA-220-367 (Escherichia coli, UniProt P69434); assay: Direct ESI-MS binding assay, PgaA-220-367; set-up: species or system E. coli; conditions: 25°C and pH 7, direct ESI-MS assay; for Kd: read-out: Kd, TPR region 220–367
T2 construct: His6 (thrombin cleavable, pET28) (N); made in house; host or cells: E. coli BL21 CodonPlus (DE3)
T2 sequence (P69434 220-367): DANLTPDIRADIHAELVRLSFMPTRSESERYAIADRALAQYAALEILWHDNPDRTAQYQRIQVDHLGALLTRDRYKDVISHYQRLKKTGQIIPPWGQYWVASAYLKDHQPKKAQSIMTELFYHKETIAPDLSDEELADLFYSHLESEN
Protocol: as §1, §2

[4] = molecular target: T3, His-PgaA (PgaA-32-807) (E. coli K-12, UniProt P69434 32-807)
T3 construct: also called His-PgaA-32-807; full-length PgaA; source: E. coli BL21: co-expressed with PgaB, in DDM extract of the lysate pellet (pull-down); expressed alone or with PgaB and purified (NiNTA, gel filtration, DDM); not shown: His6, N-terminal, kept
T3 sequence (looked up): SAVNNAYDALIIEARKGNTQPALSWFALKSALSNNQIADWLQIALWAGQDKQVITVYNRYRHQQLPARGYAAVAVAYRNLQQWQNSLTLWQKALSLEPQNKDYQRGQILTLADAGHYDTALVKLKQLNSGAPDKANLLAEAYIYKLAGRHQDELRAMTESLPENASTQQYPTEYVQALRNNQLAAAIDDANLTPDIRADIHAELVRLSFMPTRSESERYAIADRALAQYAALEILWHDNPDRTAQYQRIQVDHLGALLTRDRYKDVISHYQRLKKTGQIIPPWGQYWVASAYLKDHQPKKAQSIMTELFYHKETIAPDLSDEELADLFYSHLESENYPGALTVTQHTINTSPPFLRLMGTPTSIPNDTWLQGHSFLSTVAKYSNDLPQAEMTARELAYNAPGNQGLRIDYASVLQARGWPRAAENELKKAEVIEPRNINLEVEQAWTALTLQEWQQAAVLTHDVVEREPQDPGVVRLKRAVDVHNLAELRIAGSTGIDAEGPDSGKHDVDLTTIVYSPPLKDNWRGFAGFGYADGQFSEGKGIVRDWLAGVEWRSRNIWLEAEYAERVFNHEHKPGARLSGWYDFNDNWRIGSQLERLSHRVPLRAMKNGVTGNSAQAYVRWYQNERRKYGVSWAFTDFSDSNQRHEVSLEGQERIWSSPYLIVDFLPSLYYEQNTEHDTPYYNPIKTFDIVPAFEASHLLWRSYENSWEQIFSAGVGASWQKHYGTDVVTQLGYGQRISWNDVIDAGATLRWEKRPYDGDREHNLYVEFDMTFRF

[5] = Fluorescamine de-acetylation assay; assay type: biochemical; conditions: 30 μM enzyme and 30 mM PNAG hexamer; fluorescamine readout
Protocol: To determine whether the modulation of enzyme activity might be a common theme for the TPR domain across synthase-dependent systems, we assayed the deacetylase and glycoside hydrolase activities of PgaB in the presence and absence of PgaA. As we used co-expression to obtain the complexes, a SDS PAGE gel of the purified solutions of PgaA, PgaB and PgaA/B complexes was analyzed to ensure that equal quantities of the protein/protein complex were used (Fig 2A). Consistent with previous published studies, PgaA and PgaB appear to form a 1:1 complex. The deacetylase activity was assessed using a fluorescamine-based assay with fully acetylated PNAG hexamers as the substrate. As fluorescamine detects the presence of primary amines, which are generated during the deacetylation of the PNAG oligosaccharide, this assay provides a direct readout of the deacetylation activity of PgaB. To assess the glycoside hydrolase activity, we used a biofilm disruption assay, which has been used previously to characterize PgaB’s glycosidase activity. In this assay, biofilms of Staphylococcus epidermidis strain SE801 were grown in 96 well plates for 24 h, at which point PgaB was added. After a further 2 h, the reaction was quenched, plates washes and the amount of adherent biofilm remaining quantified using crystal violet staining. […]

Row | Molecule | Kd [1] [µM] | binding to TPR region 32–220 [2] | Kd [3] [µM] | also measured
1 | CC(=O)N[C@H]1[C@H](OC[C@H]2O[C@@H](OC[C@H]3O[C@@H](OC[C@H]4O[C@@H](OC[C@H]5OC(O)[C@H](NC(C)=O)[C@@H](O)[C@@H]5O)[C@H](NC(C)=O)[C@@H](O)[C@@H]4O)[C@H](NC(C)=O)[C@@H](O)[C@@H]3O)[C@H](NC(C)=O)[C@@H](O)[C@@H]2O)O[C@H](CO)[C@@H](O)[C@@H]1O (stereo partly shown) | 10000 | No binding | 1700 | –
2 | CC(=O)N[C@H]1[C@H](OC[C@H]2O[C@@H](OC[C@H]3O[C@@H](OC[C@H]4O[C@@H](OC[C@H]5OC(O)[C@H](NC(C)=O)[C@@H](O)[C@@H]5O)[C@H](NC(C)=O)[C@@H](O)[C@@H]4O)[C@H](N)[C@@H](O)[C@@H]3O)[C@H](NC(C)=O)[C@@H](O)[C@@H]2O)O[C@H](CO)[C@@H](O)[C@@H]1O (stereo partly shown) [(GlcNAc)2-GlcN-(GlcNAc)2] | 2300 | No binding | 1300 | –
3 | CC(=O)N[C@H]1[C@H](O[C@H]2[C@@H](O)[C@@H](CO)O[C@@H](O[C@@H]([C@H](O)[C@@H](O)C=O)[C@H](O)CO)[C@@H]2O)O[C@H](CO)[C@@H](O)[C@@H]1O[C@@H]1O[C@H](CO)[C@H](O)[C@H](O)[C@H]1O[C@@H]1O[C@@H](C)[C@@H](O)[C@@H](O)[C@@H]1O [LNF1, lacto-N-fucopentaose, reference compound] | – | – | – | Kd, TPR region 32–367 [1]: No binding; Kd, TPR region 220–367 [3]: No binding
4 | PgaB-22-672 (soluble form of PgaB) (from UniProt P75906 22-672) (enzyme) | – | – | – | fluorescamine-based deacetylation assay with PNAG hexamer, concentration of GlcN produced (PgaA+B, individually purified and mixed) [4]: 1290 µM
5 | B1 | – | – | – | concentration of GlcN produced [5]: 73.8 ± 6.3 µM

From PMC9384988, “The TPR domain of PgaA is a multifunctional scaffold that binds PNAG and modulates PgaB-dependent polymer processing” (PLoS Pathogens, 2022)
